The values below come from paper PMC12637173, “Investigation on LASSBio‐1971 and LASSBio‐1974 Cellular Cytotoxic Mechanism and Their Comparative DMPK Profile” (Archiv Der Pharmazie, 2025).

Molecules are shown by their SMILES. Read-outs that look alike come from different tables or passages of the source.

One may read the half-life as the time in which the quantity being followed falls by half. Lower therefore signals rapid decline. The microsomal CLint is a measure of how fast metabolising enzymes remove a compound, apart from limits set by blood flow.

A short description of data set [1]: PAMPA‐GIT. Type of data set: in vitro ADME. The conditions noted are these: for Classification: standard drugs used as control. The protocol:
(§1) The lipid mixture that impregnates the filter has a different constitution for the permeability tests for the BBB (brain lipid from pig extract in n‐dodecane) and the GIT (L‐α soy phosphatidylcholine in n‐dodecane). The optical density values obtained in the reading at each selected wavelength, for each of the compounds, were analyzed in comparison with the values of several controls within a calibration curve (≥ 7 drugs). In the case of the BBB, these values were used to elaborate an equation and determine the permeability coefficient (Pe), while GIT used absorbed fraction (Fa%).
On the technique in general: In PAMPA a lipid-coated filter parts donor from acceptor wells.

The conditions of data set [2]: PAMPA-GIT, standard drugs; literature value, ref not given; cited from earlier work.
Data set [3] can be described thus: PAMPA‐BBB. In kind it is in vitro ADME. The note with it: for Classification: standard drugs used as control. How it is done:
as §1

Data set [4] relates to PC‐9 (EGFRL858R). Put plainly: Apoptosis by flow cytometry (Muse Annexin V & Dead Cell Kit). In kind it is cell-based, human. The conditions noted are these: PC‐9, 72 h; for increase in the population of cells undergoing apoptosis: at their CC50; for phosphatidylserine externalization and cell membrane permeabilization, share of the NSCLC cell population: LASSBio‐1974 10 µM, CA‐4 0.1 µM. The protocol:
(§2) PC‐9 (EGFRL858R) cell line was seeded at 1 × 10^5 cells/well in a 24‐well plate. […] All flow cytometry assays were performed using Guava Muse Cell Analyzer (Cytek Biosciences) following each kit user's guide provided by the manufacturer. Muse Cell Cycle Kit (catalog no. MCH100106) was chosen to evaluate cell cycle arresting. Apoptosis features were evaluated using Muse Annexin V & Dead Cell Kit (catalog no. MCH100105), as well as inactivation of EGFR using Muse EGFR‐RTK Activation Dual Detection Kit (catalog no. MCH200102). Statistical analysis was performed using one‐way ANOVA on data collected in duplicate from at least two independent experiments (n ≥ 2), employing GraphPad Prism software (version 8.0).

Data set [5] relates to NCI‐H1975 (EGFRL858R/T790M). Kind of data set: Cell viability by MTT assay, NCI-H1975. The note with it: Homo sapiens; for IC50: read-out: cytotoxic activity, NCI-H1975 (EGFRL858R/T790M); for CC50: NCI-H1975, 72 h, read-out: cytotoxic activity CC50, NCI‐H1975 (EGFRL858R/T790M). (Tetrazolium dyes change colour on reduction, which living cells bring about.)
Protocol: (§3) All cell lines were harvested at 37°C and 5% CO2 atmosphere humid incubator.
(§4) Cells were plated at 1 × 10^4 to 3 × 10^4 cells/well and seeded in a 96‐well plate. After 16–24 h of cell acclimatization, compounds were added at 0.003–100 µM concentrations (1% DMSO vehicle). After 72 h, treatment was interrupted to measure cell viability using MTT (3‐(4,5‐dimethylthiazol‐2‐yl)‐2,5‐diphenyltetrazolium bromide) (50 µg/mL) [62]. Formazan formed by viable cells was solubilized after 4 h incubation with SDS/HCl solution (0.1 g/mL) and read at 570 nm in spectrophotometer.
Data set [6] has as its system EGFR in PC‐9 (EGFRL858R). Put plainly: EGFR activation by flow cytometry (Muse EGFR‐RTK Activation Dual Detection Kit). Type of data set: cell-based, human. How it is done: as §2
Data set [7] concerns PC‐9 (EGFRL858R). Put plainly: Cell cycle by flow cytometry (Muse Cell Cycle Kit). Type of data set: cell-based, human. The note with it: PC‐9, 24 h. The protocol: as §2
For orientation: Flow cytometry measures light scatter and fluorescence of single cells or particles in a stream.

Data set [8] deals with EGFRL858R/T790M. Details: method as in PMID 30626888. The conditions noted are these: in vitro enzymatic model; cited from earlier work.
Data set [9] deals with NCI‐H1975 (EGFRL858R/T790M). Kind of data set: Cell viability by sulforhodamine B (SRB) assay, NCI-H1975. In kind it is cell-based. The conditions noted are these: Homo sapiens, 72 h, read-out: cytotoxic activity CC50, NCI‐H1975 (EGFRL858R/T790M).
Protocol: as §3
(§5) Cells were plated at 1 × 10^4 to 3 × 10^4 cells/well and seeded in a 96‐well plate. After 16–24 h of cell acclimatization, compounds were added at 0.003–100 µM concentrations (1% DMSO as vehicle). The experimental procedure was handled as described by Vichai and Kirtikara [63]. After incubation, cells were fixed with trichloroacetic acid (TCA) (10% m/v) for 1 h at 4°C. SRB (0.004% w/v in acetic acid 1%) was added for 30 min and washed with acetic acid 1%.
Data set [10] concerns PC‐9 (EGFRL858R). Kind of data set: Cell viability by sulforhodamine B (SRB) assay, PC-9. The note with it: Homo sapiens, 72 h, read-out: cytotoxic activity CC50, PC‐9 (EGFRL858R).
Protocol: as §3, §5
The subject of data set [11] is PC‐9 (EGFRL858R). Put plainly: Cell viability by MTT assay, PC-9. The conditions noted are these: for IC50: read-out: cytotoxic activity, PC-9 (EGFRL858R).
Protocol: as §3, §4
Data set [12] has as its system NCI‐H292 (EGFRwt). Put plainly: Cell viability by sulforhodamine B (SRB) assay, NCI-H292. The note with it: Homo sapiens, NCI-H292, 72 h, read-out: cytotoxic activity CC50, NCI‐H292 (EGFRwt).
Protocol: as §3, §5
Data set [13] concerns NCI‐H292 (EGFRwt). Kind of data set: Cell viability by MTT assay, NCI-H292. The note with it: Homo sapiens; for IC50: read-out: cytotoxic activity, NCI-H292 (EGFRw.t.); for CC50: NCI-H292, 72 h.
Protocol: as §3, §4
Data set [14] in a line: Microsomal metabolic stability. The conditions noted are these: for Metabolism rate: RLM 1 mg/mL, 10 μM, 60 min; for Elimination rate constant (k) / half-life at 10 µM / microsomal CLint at 10 µM: RLM; for half-life at 10 µM / microsomal CLint at 10 µM: rat, rat liver microsomes. Type of data set: in vitro ADME, rat. How it is done: The metabolic stability of compounds LASSBio‐1971 (1) and LASSBio‐1974 (2) (10 μM) was incubated in 1 mg/mL of rat microsomes in the presence and absence of the cofactor (i.e., NADPH‐generating system) at the same concentrations as in the previous section. After mixing and incubating at 37°C in a shaking water bath for 1 h, 500 µL cold acetonitrile containing the internal standard was added to terminate the reaction at different time intervals (0, 15, 30, 45, and 60 min).

Data set [15] relates to EGFRwt. Also on record: method as in PMID 30626888. The note with it: in vitro enzymatic model; cited from earlier work.
Data set [16] concerns EGFRL858R. Details: method as in PMID 30626888. The note with it: in vitro enzymatic model; cited from earlier work.
[17] abbreviates: PAMPA-GIT, standard drugs used as control (n = 2).
The mark [18] stands for this setting: PAMPA-GIT, standard drugs used as control (n = 2), read-out: Pe experimental.
Where [19] appears, read: Homo sapiens, 72 h, read-out: cytotoxic activity CC50, PC‐9 (EGFRL858R).
The mark [20] stands for this setting: NADPH regenerator system: Absence.
The mark [21] stands for this setting: NADPH regenerator system: Presence.

Molecule `Nc1nc2c(ncn2COCCO)c(=O)[nH]1` [Acyclovir] registered a Fa exp. in data set [1] (setting [17]) of 1.70%.
Regarding `CC(C)NCC(O)COc1ccc(CC(N)=O)cc1` (stereo not shown) [Atenolol], the Fa lit. in [2] is on record as 5.2%. In data set [1] (setting [17]), this molecule had a Fa exp. of 2.26%.
In the case of `Cn1c(=O)c2c(ncn2C)n(C)c1=O` [Caffeine, reference compound], in data set [3] (PAMPA-BBB), the Classification entry was “CNS -”.
For the molecule `CO/N=C(\C(=O)N[C@@H]1C(=O)N2C(C(=O)O)=C(CSc3nc(=O)c(=O)[nH]n3C)CS[C@H]12)c1csc(N)n1` [Ceftriaxone], in data set [2], the Fa lit. was 1% and the Pe literature is 0.10 10^-6 cm s^-1. Moreover, the Classification result in data set [1] (PAMPA-GIT) is reported as “Low (low permeability (0%–29%))”. The Fa exp. in [1] (setting [17]) is on record as 1.37%. In addition, the Papp in data set [1] (setting [18]) stood at 0.67 ×10⁻⁶ cm/s.
On to `O=C(O)Cc1ccccc1Nc1c(Cl)cccc1Cl` [Diclofenac], for which, in data set [2], the Fa lit. is listed as 100% and the Pe literature is 12.50 10^-6 cm s^-1. Besides, the Classification entry in data set [1] (PAMPA-GIT) was “High (high intestinal permeability (70%–100%))”. In data set [1] (setting [17]), this molecule returned a Fa exp. of 99.31%. Also, in data set [1] (setting [18]), the Papp was found to be 13.1 ×10⁻⁶ cm/s.
For `CCn1cc(C(=O)O)c(=O)c2cc(F)c(N3CCNCC3)nc21` [Enoxacin, reference compound], the Classification entry in data set [3] (PAMPA-BBB) is on record as “CNS +”. In addition, the Papp in data set [3] (PAMPA-BBB, standard drugs used as control (n = 2), read-out: Pe experimental) worked out at 0.56 ×10⁻⁶ cm/s.
As for `C#Cc1cccc(Nc2ncnc3cc(OCCOC)c(OCCOC)cc23)c1` [Erlotinib, erlotinib, reference compound], in [4], the “increase in the population of cells undergoing apoptosis” value was “approximately 10%”. In data set [5] (NCI-H1975, 48 h), the IC50 is greater than 100 µM.
Consider `CN(C)C/C=C/C(=O)Nc1ccc2ncc(NC(=O)Nc3ccccc3)nc2c1` [LASSBio‐1974 (2)], for which the “phosphatidylserine externalization and cell membrane permeabilization, share of the NSCLC cell population” value in data set [4] is on record as roughly 90%. Also, in data set [6] (PC‐9, at respective CC50, compared to vehicle (DMSO 1%)), the “inhibition of phosphorylation and activation of EGFR” value is on record as “inhibit phosphorylation”. For the same molecule, the figures for the “cell cycle arrest phase” value in [7] (1 µM) and in [7] (10 µM) were “cycle arresting in the G0/G1 phase” and “cell cycle arrest in G2/M phase”, respectively. In addition, the IC50 in data set [8] was 0.132 ± 0.049 µM; in data set [5] (NCI-H1975, 24 h), 38 µM; in data set [5] (NCI-H1975, 48 h), 6.58 µM; in [11] (Homo sapiens, 24 h), 9.74 µM; in data set [11] (Homo sapiens, 48 h), 1.22 µM; in data set [13] (NCI-H292, 24 h), 16.4 µM. Also, the IC50 in [13] (NCI-H292, 48 h) was 7.25 µM; in data set [15], 0.101 ± 0.012 µM; in [16], 0.032 ± 0.014 µM. For the same molecule, in data set [3] (PAMPA‐BBB), the “Classification BBB” value is on record as “CNS ±”. Also, the “Pe. Exp. BBB” value in data set [3] (PAMPA‐BBB, mean ± standard deviation (n = 3)) is given as 2.37 10^−6 cm/s. The Papp came out at 2.37 ± 0.44 ×10⁻⁶ cm/s in data set [3] (PAMPA‐BBB, mean ± standard deviation (n = 3), read-out: Pe. Exp. BBB) and 0.82 ± 0.47 ×10⁻⁶ cm/s in [1] (PAMPA‐GIT, mean ± standard deviation (n = 3), read-out: Pe. Exp. GIT). The “Classification GIT” value in [1] (PAMPA‐GIT) is on record as “Low (low permeability (0%–29%))”. Further, the “Fa (absorbed fraction)” value in data set [1] (PAMPA‐GIT) is given as 26.78%. The CC50 came to 20.5 µM in data set [9]; 7.09 µM in [5]; 1.22 µM in data set [10]; 1.1 µM in data set [11] (setting [19]); 8.99 µM in data set [12]; 4.98 µM in data set [13] (read-out: cytotoxic activity CC50, NCI‐H292 (EGFRwt), MTT, 72 h). The Metabolism rate in data set [14] (setting [20]) turned out to be 10.78%; in data set [14] (setting [21]), 83.11%. Besides, the “Elimination rate constant (k)” value in data set [14] (setting [20]) is on record as 0.0016; in [14] (setting [21]) it was 0.1172. Further, the half-life at 10 µM in [14] (setting [20]) stood at 7.22 h; in data set [14] (setting [21]), 0.0985 h. Also, the microsomal CLint at 10 µM was found to be 0.4 µL/min/mg in data set [14] (setting [20]) and 29.3 µL/min/mg in data set [14] (setting [21]).
With `C=CC(=O)Nc1cc(Nc2nccc(-c3cn(C)c4ccccc34)n2)c(OC)cc1N(C)CCN(C)C` [Osimertinib, osimertinib, reference compound], the “increase in the population of cells undergoing apoptosis” value in [4] is recorded as “approximately 10%”. In addition, in data set [6], the “inhibition of phosphorylation and activation of EGFR” value is given as “inhibited phosphorylation”. Besides, the IC50 is […] in data set [5] (NCI-H1975, 24 h); […] in data set [5] (NCI-H1975, 48 h); 8.32 µM in data set [11] (Homo sapiens, 24 h); 0.17 µM in [11] (Homo sapiens, 48 h); 6.81 µM in data set [13] (NCI-H292, 48 h). Also, the CC50 in data set [5] came to […]; in data set [10] it was 0.07 µM; in [11] (setting [19]), 0.05 µM; in data set [12] it was 6.86 µM; in [13] (read-out: cytotoxic activity CC50, NCI‐H292 (EGFRwt)), 6.3 µM.
As to `CNC(=C[N+](=O)[O-])NCCSCc1ccc(CN(C)C)o1` [Ranitidine], the Classification result in [1] (PAMPA-GIT) was “Medium (medium permeability (30%–69%))”. Besides, the Fa exp. in data set [1] (setting [17]) amounted to 38.29%. For the same molecule, in data set [1] (setting [18]), the Papp was determined as 0.3 ×10⁻⁶ cm/s.
For the molecule `O=C(O)c1cc(/N=N/c2ccc(S(=O)(=O)Nc3ccccn3)cc2)ccc1O` [Sulfasalazine], in [2], the Fa lit. is 42% and the Pe literature was 0.30 10^-6 cm s^-1.
Take `COc1ccc(/C=C\c2cc(OC)c(OC)c(OC)c2)cc1O` [combretastatin A4, reference compound]: the “phosphatidylserine externalization and cell membrane permeabilization, share of the NSCLC cell population” value in data set [4] is reported as roughly 60%. Besides, the CC50 in data set [11] (read-out: CC50 stated in figure legend, PC‐9, CC50 given as concentration used in flow cytometry, assay and time not stated) is 0.1 µM.
